Measurements as given in the NIST ThermoML archive (doi:10.1016/j.jct.2015.08.015).
± gives the expanded uncertainty stated by the source.

Settings: Liquid, Ebulliometric method (Recirculating still)

CC=CCC#N [3-pentenenitrile]
Settings	vapor or sublimation pressure [kPa]
339.24 K	7.588 ± 0.15
344.85 K	9.491 ± 0.19
353.91 K	13.48 ± 0.27
362.45 K	18.32 ± 0.37
368.92 K	22.91 ± 0.46
375.61 K	28.8 ± 0.58
382.01 K	35.37 ± 0.71
386.13 K	40.09 ± 0.81
388.17 K	42.83 ± 0.86
391.42 K	47.08 ± 0.95
394.31 K	51.62 ± 1
398.64 K	57.83 ± 1.2
402.51 K	65.49 ± 1.3
407.31 K	74.49 ± 1.5
409.72 K	80.01 ± 1.6
412.88 K	86.78 ± 1.7
414.32 K	90.5 ± 1.8
417.51 K	97.9 ± 2
